Activity calls are given as the source filed them. The rule behind the calls is not given here.
What was measured:
[1] = molecular target: T1, Ubiquitin carboxyl-terminal hydrolase 7 (Homo sapiens, UniProt Q93009); assay: Inhibition of USP7 (unknown origin) using ubiquitin-EKL as substrate at 20 uM
Target sequence in this assay (Q93009 whole entry, looked up): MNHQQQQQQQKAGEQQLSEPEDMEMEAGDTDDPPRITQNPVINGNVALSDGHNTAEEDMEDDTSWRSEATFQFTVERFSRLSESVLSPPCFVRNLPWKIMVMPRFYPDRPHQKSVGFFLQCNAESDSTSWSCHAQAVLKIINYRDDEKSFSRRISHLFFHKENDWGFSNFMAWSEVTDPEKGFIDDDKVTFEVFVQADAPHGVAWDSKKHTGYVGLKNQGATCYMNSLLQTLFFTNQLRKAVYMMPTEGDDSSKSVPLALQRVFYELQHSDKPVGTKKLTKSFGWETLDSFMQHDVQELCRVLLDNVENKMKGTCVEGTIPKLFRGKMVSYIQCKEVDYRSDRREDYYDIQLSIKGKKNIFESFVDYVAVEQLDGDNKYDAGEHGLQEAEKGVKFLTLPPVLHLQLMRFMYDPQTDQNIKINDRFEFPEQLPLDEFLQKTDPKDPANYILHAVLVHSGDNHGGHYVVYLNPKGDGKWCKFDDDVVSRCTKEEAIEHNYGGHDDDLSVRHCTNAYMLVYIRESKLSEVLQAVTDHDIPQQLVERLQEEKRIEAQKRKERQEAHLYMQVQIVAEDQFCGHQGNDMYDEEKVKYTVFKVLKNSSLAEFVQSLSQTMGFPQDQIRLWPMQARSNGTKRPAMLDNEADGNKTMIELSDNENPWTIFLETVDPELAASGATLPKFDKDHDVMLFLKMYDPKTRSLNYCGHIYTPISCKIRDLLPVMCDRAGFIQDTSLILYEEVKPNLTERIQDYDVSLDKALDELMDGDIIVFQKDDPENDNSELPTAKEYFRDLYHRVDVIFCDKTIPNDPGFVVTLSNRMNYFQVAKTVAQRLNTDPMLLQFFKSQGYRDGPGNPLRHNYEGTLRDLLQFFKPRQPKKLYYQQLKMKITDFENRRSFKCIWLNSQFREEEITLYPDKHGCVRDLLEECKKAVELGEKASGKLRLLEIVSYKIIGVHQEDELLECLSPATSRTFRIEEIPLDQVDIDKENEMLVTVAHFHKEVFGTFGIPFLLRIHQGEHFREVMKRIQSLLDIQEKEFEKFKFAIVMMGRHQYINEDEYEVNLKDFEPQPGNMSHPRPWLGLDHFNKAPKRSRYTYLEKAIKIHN

[2] = molecular target: T1, Ubiquitin carboxyl-terminal hydrolase 7; assay: Inhibition of USP7 (unknown origin) using ubiquitin-EKL as substrate
Target sequence in this assay (Q93009 whole entry): as the sequence (Q93009 whole entry, looked up) above

HCT-116 = assay: Antiproliferative activity against p53 wild type human HCT116 cells expressing USP7 assessed as growth inhibition up to 50 uM; assay type: functional, cell-based
[3] = molecular target: T2, Sentrin-specific protease 1 (Homo sapiens, UniProt Q9P0U3); assay: Inhibition of core catalytic domain of SENP1 (unknown origin) using SUMO3-EKL as substrate
T2 sequence (Q9P0U3 whole entry): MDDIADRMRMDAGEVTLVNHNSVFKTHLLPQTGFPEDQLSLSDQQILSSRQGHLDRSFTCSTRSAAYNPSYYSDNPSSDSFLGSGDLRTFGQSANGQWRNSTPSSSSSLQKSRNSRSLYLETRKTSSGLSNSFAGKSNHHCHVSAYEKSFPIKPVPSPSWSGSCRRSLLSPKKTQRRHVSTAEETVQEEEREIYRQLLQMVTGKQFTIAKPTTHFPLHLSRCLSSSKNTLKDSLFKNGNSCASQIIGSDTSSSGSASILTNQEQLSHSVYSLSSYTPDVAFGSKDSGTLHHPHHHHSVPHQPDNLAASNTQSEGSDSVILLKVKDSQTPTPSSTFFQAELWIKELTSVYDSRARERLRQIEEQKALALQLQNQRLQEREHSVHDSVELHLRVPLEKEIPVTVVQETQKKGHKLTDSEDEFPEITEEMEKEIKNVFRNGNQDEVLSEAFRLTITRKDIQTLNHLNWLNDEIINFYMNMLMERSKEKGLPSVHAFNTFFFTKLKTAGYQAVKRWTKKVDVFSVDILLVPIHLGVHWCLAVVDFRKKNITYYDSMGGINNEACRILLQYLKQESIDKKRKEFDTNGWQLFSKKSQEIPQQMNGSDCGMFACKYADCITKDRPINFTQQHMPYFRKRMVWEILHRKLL

[4] = molecular target: T3, Ubiquitin carboxyl-terminal hydrolase 21 (Homo sapiens, UniProt Q9UK80); assay: Inhibition of core catalytic domain of USP21 (unknown origin) using ubiquitin-Rh110 as substrate
T3 sequence (Q9UK80 whole entry): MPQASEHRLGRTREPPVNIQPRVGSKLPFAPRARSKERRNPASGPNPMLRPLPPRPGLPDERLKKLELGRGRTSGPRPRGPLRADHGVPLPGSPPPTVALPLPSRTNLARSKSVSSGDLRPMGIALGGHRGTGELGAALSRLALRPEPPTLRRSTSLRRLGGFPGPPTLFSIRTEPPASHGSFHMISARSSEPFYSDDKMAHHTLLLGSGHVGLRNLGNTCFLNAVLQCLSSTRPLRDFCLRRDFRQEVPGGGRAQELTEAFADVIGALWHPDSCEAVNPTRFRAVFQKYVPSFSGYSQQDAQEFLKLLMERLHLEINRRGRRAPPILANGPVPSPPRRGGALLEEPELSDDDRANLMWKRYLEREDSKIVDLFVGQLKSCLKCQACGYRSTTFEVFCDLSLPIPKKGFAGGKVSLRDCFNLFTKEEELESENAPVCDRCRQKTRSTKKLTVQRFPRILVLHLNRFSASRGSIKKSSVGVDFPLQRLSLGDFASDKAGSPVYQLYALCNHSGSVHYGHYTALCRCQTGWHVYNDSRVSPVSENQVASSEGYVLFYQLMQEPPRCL

[5] = molecular target: T4, Ubiquitin carboxyl-terminal hydrolase 8 (Homo sapiens, UniProt P40818); assay: Inhibition of core catalytic domain of USP8 (unknown origin) using ubiquitin-Rh110 as substrate
T4 sequence (P40818 whole entry): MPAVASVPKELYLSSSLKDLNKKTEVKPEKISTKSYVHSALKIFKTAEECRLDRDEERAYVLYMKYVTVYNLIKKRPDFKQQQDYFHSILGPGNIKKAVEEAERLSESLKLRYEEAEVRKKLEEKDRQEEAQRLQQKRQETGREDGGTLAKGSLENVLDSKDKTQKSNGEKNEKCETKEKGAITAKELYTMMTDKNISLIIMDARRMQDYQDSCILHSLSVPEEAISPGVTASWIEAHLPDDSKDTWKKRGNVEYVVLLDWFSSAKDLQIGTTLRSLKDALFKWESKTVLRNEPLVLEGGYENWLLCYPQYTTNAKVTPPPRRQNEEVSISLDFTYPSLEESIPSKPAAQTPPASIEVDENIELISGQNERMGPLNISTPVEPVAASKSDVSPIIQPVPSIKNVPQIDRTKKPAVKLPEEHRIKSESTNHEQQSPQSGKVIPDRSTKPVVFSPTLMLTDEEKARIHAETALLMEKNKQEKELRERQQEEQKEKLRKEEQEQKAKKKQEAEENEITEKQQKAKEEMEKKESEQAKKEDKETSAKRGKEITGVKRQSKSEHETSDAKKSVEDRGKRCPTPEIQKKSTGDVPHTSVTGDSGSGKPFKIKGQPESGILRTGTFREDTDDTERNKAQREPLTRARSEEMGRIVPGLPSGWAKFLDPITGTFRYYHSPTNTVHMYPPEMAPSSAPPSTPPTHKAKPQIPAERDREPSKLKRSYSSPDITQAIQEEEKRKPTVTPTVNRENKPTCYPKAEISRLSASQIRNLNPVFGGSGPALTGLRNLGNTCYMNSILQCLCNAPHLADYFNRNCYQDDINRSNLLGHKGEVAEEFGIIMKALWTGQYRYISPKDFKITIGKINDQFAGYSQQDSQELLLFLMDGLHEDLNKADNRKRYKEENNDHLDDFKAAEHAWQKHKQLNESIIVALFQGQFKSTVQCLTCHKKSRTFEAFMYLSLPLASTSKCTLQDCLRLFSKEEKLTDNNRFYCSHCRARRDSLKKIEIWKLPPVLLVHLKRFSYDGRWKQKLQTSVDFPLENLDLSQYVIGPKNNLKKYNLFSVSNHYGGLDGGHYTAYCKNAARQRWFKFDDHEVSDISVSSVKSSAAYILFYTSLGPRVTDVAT

[6] = molecular target: T5, Ubiquitin carboxyl-terminal hydrolase 2 (Homo sapiens, UniProt O75604); assay: Inhibition of core catalytic domain of USP2 (unknown origin) using diubiquitin IQF K4804 as substrate
T5 sequence (O75604 whole entry): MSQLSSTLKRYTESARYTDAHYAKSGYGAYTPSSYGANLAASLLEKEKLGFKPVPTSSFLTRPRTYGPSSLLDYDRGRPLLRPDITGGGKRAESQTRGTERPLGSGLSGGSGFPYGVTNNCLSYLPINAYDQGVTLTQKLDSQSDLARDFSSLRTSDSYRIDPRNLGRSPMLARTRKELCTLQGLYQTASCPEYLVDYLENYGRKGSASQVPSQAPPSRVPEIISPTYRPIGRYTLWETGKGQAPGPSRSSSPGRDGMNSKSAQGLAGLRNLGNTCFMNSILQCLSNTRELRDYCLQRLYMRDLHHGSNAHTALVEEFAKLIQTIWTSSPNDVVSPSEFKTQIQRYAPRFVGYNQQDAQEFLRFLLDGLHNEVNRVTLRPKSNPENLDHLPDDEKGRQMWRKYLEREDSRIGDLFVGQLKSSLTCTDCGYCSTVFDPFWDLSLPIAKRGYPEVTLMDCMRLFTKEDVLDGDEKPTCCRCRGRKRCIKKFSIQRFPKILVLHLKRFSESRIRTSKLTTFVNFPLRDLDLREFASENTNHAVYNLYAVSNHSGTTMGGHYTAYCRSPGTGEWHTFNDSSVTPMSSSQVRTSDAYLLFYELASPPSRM

| inhibition [1] [%] | IC50 [2] [µM] | SMILES | also measured |
| --- | --- | --- | --- |
| 20 | – | NC1=NC(=O)/C(=C2\CCNC(=O)c3[nH]c(Br)cc32)N1 | – |
| 20 | – | NC1=N/C(=C2/CCNC(=O)c3[nH]ccc32)C(=O)N1 | – |
| – | 22.6 | CCN(CCCNC(=O)c1ccc2nc3c(c(Cl)c2c1)CCCC3)Cc1ccccc1 | – |
| – | 0.42 | N#Cc1nc2c(nc1C#N)-c1ccc(Cl)cc1C2=O | – |
| – | 3.8 | O=C1NC(=O)/C(=C2\CCNC(=O)c3[nH]ccc32)N1 [SPONGIACIDIN C] | growth inhibition (GI) (HCT-116): inactive; IC50 [3]: > 31.6 µM; IC50 [4]: 16.6 µM; IC50 [5]: > 31.6 µM; IC50 [6]: > 31.6 µM |

| SMILES | inhibition [1] [%] | IC50 [2] [µM] | also measured |
| --- | --- | --- | --- |
| CN(CCCNC(=O)c1ccc2nc3c(c(Cl)c2c1)CCCC3)Cc1ccccc1 | – | 28.1 | – |

— ChEMBL document CHEMBL2396580, “Spongiacidin C, a pyrrole alkaloid from the marine sponge Stylissa massa, functions as a USP7 inhibitor” (Bioorg Med Chem Lett, 2013)
